Assay results from patent US20160326143A1, “COMPOUNDS AND USES” (AstraZeneca AB, priority 2015, published 2016).

Target: Recombinant human LTC4 synthase (Homo sapiens (Human), UniProt Q16873)
Assay: In vitro hLTC4 synthase enzyme assay (Test A)
Type: biochemical
Conditions: Test A (Examples 1-61); substrate LTA4, LTC4 detected by HTRF; median of at least two determinations
Description: In Vitro hLTC4 Synthase Enzyme Assay (Test A)
Recombinant human LTC4 synthase is expressed in Piccia pastoralis and the purified enzyme is dissolved in 25 mM tris-buffer pH 7.8 supplemented with 0.1 mM glutathione (GSH) and stored at −80° C.
The buffer is used as background. Runs are performed in duplicates.
The reaction is stopped after 1 min by addition of double the reaction volume of a stop solution (MeOH:H2O:acetic acid 70:30:1).
After 15 fold dilution in PBS, LTC4 formation is detected with LTC4 HTRF kit (Cisbio, cat. No 64LC4PEC) and a fluorescence reader. Typically 6 μL of sample is mixed with 3 μL of each of the HTRF reagents d2 and k and analyzed as described in the kit manual.

Recombinant human LTC4 synthase, sequence (Q16873 whole entry): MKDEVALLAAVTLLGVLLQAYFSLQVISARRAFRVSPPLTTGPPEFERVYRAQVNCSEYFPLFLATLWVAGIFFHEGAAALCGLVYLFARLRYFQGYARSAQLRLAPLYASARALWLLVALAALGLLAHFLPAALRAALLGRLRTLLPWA

IC50 [nM] | Structure (SMILES)
331 | COc1cc(N(Cc2cccc(C(F)(F)F)c2F)CC2CC2)cnc1C(=O)C1CC1C(=O)O (stereo not drawn) [Example 31, 2-(5-((Cyclopropylmethyl)(2-fluoro-3-(trifluoromethyl)benzyl)amino)-3-methoxypicolinoyl)cyclopropanecarboxylic acid]
26 | COc1cc(N(CC2CC2)c2ccc(F)c3ccccc23)ccc1C(=O)C1CC1C(=O)O (stereo not drawn) [Example 46, 2-(4-((Cyclopropylmethyl)(4-fluoronaphthalen-1-yl)amino)-2-methoxybenzoyl)cyclopropanecarboxylic acid]
1670 | COc1cc(N(Cc2c(F)ccc(C)c2F)CC2CC2)cnc1C(=O)C1CC1C(=O)O (stereo not drawn) [Example 32, 2-(5-((Cyclopropylmethyl)(2,6-difluoro-3-methylbenzyl)amino)-3-methoxypicolinoyl)cyclopropanecarboxylic acid]
88 | COc1cc(N(Cc2cccc(C(F)(F)F)c2C)CC2CC2)cnc1C(=O)C1CC1C(=O)O (stereo not drawn) [Example 20, 2-(5-((Cyclopropylmethyl)(2-methyl-3-(trifluoromethyl)benzyl)amino)-3-methoxypicolinoyl)cyclopropanecarboxylic acid]
263 | COCC1(CN(c2ccc(Cl)cc2)c2cnc(C(=O)C3CC3C(=O)O)c(OC)c2)CC1 (stereo not drawn) [Example 4, 2-(5-((4-Chlorophenyl)((1-(methoxymethyl)cyclopropyl)methyl)amino)-3-methoxypicolinoyl)cyclopropanecarboxylic acid]
279 | COc1cc(N(CC2CC2)c2ccc(C)c3ncccc23)cnc1C(=O)C1CC1C(=O)O (stereo not drawn) [Example 8, 2-(5-((Cyclopropylmethyl)(8-methylquinolin-5-yl)amino)-3-methoxypicolinoyl)cyclopropanecarboxylic acid]
19 | COc1cc(N(CC2CC2)c2ccc(C(F)(F)F)c3ccccc23)cnc1C(=O)C1CC1C(=O)O (stereo not drawn) [Example 34, 2-(5-((Cyclopropylmethyl)(4-(trifluoromethyl)naphthalen-1-yl)amino)-3-methoxypicolinoyl)cyclopropanecarboxylic acid]
152 | COc1cc(N(Cc2ccc(F)c(Cl)c2F)CC2CC2)cnc1C(=O)C1CC1C(=O)O (stereo not drawn) [Example 30, 2-(5-((3-Chloro-2,4-difluorobenzyl)(cyclopropylmethyl)amino)-3-methoxypicolinoyl)cyclopropanecarboxylic acid]
31 | COc1cc(N(CC2CC2)c2ccc3cccc4c3c2CC4)cnc1C(=O)C1CC1C(=O)O (stereo not drawn) [Example 38, 2-(5-((Cyclopropylmethyl)(1,2-dihydroacenaphthylen-3-yl)amino)-3-methoxypicolinoyl)cyclopropanecarboxylic acid]
62 | COc1cc(N(CC2CC2)c2ccc(C)c3ccccc23)ccc1C(=O)C1CC1C(=O)O (stereo not drawn) [Example 45, 2-(4-((Cyclopropylmethyl)(4-methylnaphthalen-1-yl)amino)-2-methoxybenzoyl)cyclopropanecarboxylic acid]
65 | COc1cc(N(CC2CC2)c2ccc(Cl)cc2)ccc1C(=O)C1CC1C(=O)O (stereo not drawn) [Example 49, 2-(4-((4-Chlorophenyl)(cyclopropylmethyl)amino)-2-methoxybenzoyl)cyclopropanecarboxylic acid]
34 | COc1cc(N(Cc2ccc(Cl)cc2)CC2CC2)cnc1C(=O)C1CC1C(=O)O (stereo not drawn) [Example 13, 2-(5-((4-Chlorobenzyl)(cyclopropylmethyl)amino)-3-methoxypicolinoyl)cyclopropanecarboxylic acid]
24 | COc1cc(N(CC2CC2)c2cccc3ccccc23)cnc1C(=O)C1CC1C(=O)O (stereo not drawn) [Example 9, 2-(5-((Cyclopropylmethyl)(naphthalen-1-yl)amino)-3-methoxypicolinoyl)cyclopropanecarboxylic acid]
25 | COc1cc(N(CC2CC2)c2cccc3c(C(F)(F)F)cccc23)cnc1C(=O)C1CC1C(=O)O (stereo not drawn) [Example 37, 2-(5-((Cyclopropylmethyl)(5-(trifluoromethyl)naphthalen-1-yl)amino)-3-methoxypicolinoyl)cyclopropanecarboxylic acid]
74 | COc1cc(N(CC2CC2)c2ccc(Cl)cc2)cnc1C(=O)C1CC1C(=O)NS(=O)(=O)c1ccccc1F (stereo not drawn) [Example 43, 2-(5-((4-Chlorophenyl)(cyclopropylmethyl)amino)-3-methoxypicolinoyl)-N-((2-fluorophenyl)sulfonyl)-cyclopropanecarboxamide]
17 | COc1nc(C(=O)C2CC2C(=O)O)ncc1N(CC1CC1)c1ccc(Cl)c2ccccc12 (stereo not drawn) [Example 56, 2-(5-((4-Chloronaphthalen-1-yl)(cyclopropylmethyl)amino)-4-methoxypyrimidine-2-carbonyl)cyclopropanecarboxylic acid]
152 | COc1cc(N(CC2CC2)c2ccc(C(F)(F)F)c3cccnc23)ccc1C(=O)C1CC1C(=O)O (stereo not drawn) [Example 53, 2-(4-((Cyclopropylmethyl)(5-(trifluoromethyl)quinolin-8-yl)amino)-2-methoxybenzoyl)cyclopropanecarboxylic acid]
34 | COc1cc(N(Cc2ccc3ccccc3c2)CC2CC2)cnc1C(=O)C1CC1C(=O)O (stereo not drawn) [Example 17, 2-(5-((Cyclopropylmethyl)(naphthalen-2-ylmethyl)amino)-3-methoxypicolinoyl)cyclopropanecarboxylic acid]
75 | COc1cc(N(CC2CC2)c2ccc(C)c(C)c2)ccc1C(=O)C1CC1C(=O)O (stereo not drawn) [Example 50, 2-(4-((Cyclopropylmethyl)(3,4-dimethylphenyl)amino)-2-methoxybenzoyl)cyclopropanecarboxylic acid]
39 | COc1cc(N(CC2CC2)c2ccc(F)c3ccccc23)cnc1C(=O)C1CC1c1nnn[nH]1 (stereo not drawn) [Example 61, (2-(1H-Tetrazol-5-yl)cyclopropyl)(5-((cyclopropylmethyl)(4-fluoronaphthalen-1-yl)amino)-3-methoxypyridin-2-yl)methanone]
636 | O=C(O)C1CC1C(=O)c1ccc(N(Cc2ccc(Cl)cc2)CC2CC2)cn1 (stereo not drawn) [Example 55, 2-(5-((4-Chlorobenzyl)(cyclopropylmethyl)amino)picolinoyl)cyclopropanecarboxylic acid]
185 | COc1cc(N(Cc2ccc(C)c(F)c2F)CC2CC2)cnc1C(=O)C1CC1C(=O)O (stereo not drawn) [Example 33, 2-(5-((Cyclopropylmethyl)(2,3-difluoro-4-methylbenzyl)amino)-3-methoxypicolinoyl)cyclopropanecarboxylic acid]
359 | COc1cc(N(CC2CC2)c2ccc(C)c3ncccc23)ccc1C(=O)C1CC1C(=O)O (stereo not drawn) [Example 52, 2-(4-((Cyclopropylmethyl)(8-methylquinolin-5-yl)amino)-2-methoxybenzoyl)cyclopropanecarboxylic acid]
68 | COc1cc(N(Cc2ccc(Cl)cc2)CC2CC2)ccc1C(=O)C1CC1C(=O)O (stereo not drawn) [Example 51, 2-(4-((4-Chlorobenzyl)(cyclopropylmethyl)amino)-2-methoxybenzoyl)cyclopropanecarboxylic acid]
105 | COc1cc(N(Cc2ccc(F)cc2)CC2CC2)cnc1C(=O)C1CC1C(=O)O (stereo not drawn) [Example 19, 2-(5-((Cyclopropylmethyl)(4-fluorobenzyl)amino)-3-methoxypicolinoyl)cyclopropanecarboxylic acid]
19 | COc1nc(C(=O)C2CC2C(=O)O)ncc1N(CC1CC1)c1ccc(F)c2ccccc12 (stereo not drawn) [Example 58, 2-(5-((Cyclopropylmethyl)(4-fluoronaphthalen-1-yl)amino)-4-methoxypyrimidine-2-carbonyl)cyclopropanecarboxylic acid]
46 | COc1cc(N(CC2CC2)c2cccc3ccccc23)ccc1C(=O)C1CC1C(=O)O (stereo not drawn) [Example 48, 2-(4-((Cyclopropylmethyl)(naphthalen-1-yl)amino)-2-methoxybenzoyl)cyclopropanecarboxylic acid]
356 | COc1cc(N(CC2CC2)c2ccc(Cl)cc2)cnc1C(=O)C1CC1C(=O)NS(=O)(=O)C1CC1 (stereo not drawn) [Example 40, 2-(5-((4-Chlorophenyl)(cyclopropylmethyl)amino)-3-methoxypicolinoyl)-N-(cyclopropylsulfonyl)-cyclopropanecarboxamide]
18 | COc1nc(C(=O)C2CC2C(=O)O)ncc1N(CC1CC1)c1ccc(C)c2ccccc12 (stereo not drawn) [Example 59, 2-(5-((Cyclopropylmethyl)(4-methylnaphthalen-1-yl)amino)-4-methoxypyrimidine-2-carbonyl)cyclopropanecarboxylic acid]
61 | COc1cc(N(CC2CC2)c2ccc(Cl)c3ccccc23)ccc1C(=O)C1CC1C(=O)O (stereo not drawn) [Example 47, 2-(4-((4-Chloronaphthalen-1-yl)(cyclopropylmethyl)amino)-2-methoxybenzoyl)cyclopropanecarboxylic acid]

Structure (SMILES) | IC50 [nM]
COc1cc(N(CC2(C(F)(F)F)CC2)c2ccc(Cl)cc2)cnc1C(=O)C1CC1C(=O)O (stereo not drawn) [Example 3, 2-(5-((4-Chlorophenyl)((1-(trifluoromethyl)cyclopropyl)methyl)amino)-3-methoxypicolinoyl)cyclopropanecarboxylic acid] | 149
COc1cc(N(CC2CC2)c2ccc3c4c(cccc24)CC3)cnc1C(=O)C1CC1C(=O)O (stereo not drawn) [Example 36, 2-(5-((Cyclopropylmethyl)(1,2-dihydroacenaphthylen-5-yl)amino)-3-methoxypicolinoyl)cyclopropanecarboxylic acid] | 9
COc1cc(N(Cc2c(C)ccc3ccccc23)CC2CC2)cnc1C(=O)C1CC1C(=O)O (stereo not drawn) [Example 23, 2-(5-((Cyclopropylmethyl)((2-methylnaphthalen-1-yl)methyl)amino)-3-methoxypicolinoyl)cyclopropanecarboxylic acid] | 1840
